Experimental data from the kinase profiling compilation of Christmann-Franck et al. (2016).

Columns and labels:
Assay in all cases: radiometric filter-binding kinase assay
[1] = target: ABL1 (human) (UniProt P00519)
[2] = target: AURKB (human) (UniProt Q96GD4)
[3] = target: PHKG1 (human) (UniProt Q16816)
[4] = target: PRKCG (human) (UniProt P05129)
[5] = target: PTK6 (human) (UniProt Q13882)
[6] = target: STK16 (human) (UniProt O75716)
[7] = target: STK33 (human) (UniProt Q9BYT3)
[8] = target: TEK (human) (UniProt Q02763)
[9] = target: ZAP70 (human) (UniProt P43403)
ZAP70 (human), sequence (P43403 whole entry, looked up): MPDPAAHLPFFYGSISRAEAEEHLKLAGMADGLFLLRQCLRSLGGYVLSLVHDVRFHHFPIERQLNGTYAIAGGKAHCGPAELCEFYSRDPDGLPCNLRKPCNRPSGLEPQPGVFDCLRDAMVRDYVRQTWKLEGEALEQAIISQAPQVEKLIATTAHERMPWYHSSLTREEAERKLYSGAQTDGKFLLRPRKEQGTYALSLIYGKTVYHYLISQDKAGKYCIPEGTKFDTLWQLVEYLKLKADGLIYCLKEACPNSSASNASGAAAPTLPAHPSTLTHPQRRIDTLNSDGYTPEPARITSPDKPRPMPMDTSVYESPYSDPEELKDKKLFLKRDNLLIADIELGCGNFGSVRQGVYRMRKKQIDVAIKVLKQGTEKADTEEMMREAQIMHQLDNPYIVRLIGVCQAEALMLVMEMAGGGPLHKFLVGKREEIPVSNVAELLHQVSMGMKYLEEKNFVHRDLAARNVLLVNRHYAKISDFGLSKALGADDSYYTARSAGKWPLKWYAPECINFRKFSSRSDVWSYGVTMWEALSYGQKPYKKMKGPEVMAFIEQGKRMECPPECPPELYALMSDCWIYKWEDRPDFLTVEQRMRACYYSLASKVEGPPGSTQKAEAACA

STK33 (human), sequence (Q9BYT3 whole entry, looked up): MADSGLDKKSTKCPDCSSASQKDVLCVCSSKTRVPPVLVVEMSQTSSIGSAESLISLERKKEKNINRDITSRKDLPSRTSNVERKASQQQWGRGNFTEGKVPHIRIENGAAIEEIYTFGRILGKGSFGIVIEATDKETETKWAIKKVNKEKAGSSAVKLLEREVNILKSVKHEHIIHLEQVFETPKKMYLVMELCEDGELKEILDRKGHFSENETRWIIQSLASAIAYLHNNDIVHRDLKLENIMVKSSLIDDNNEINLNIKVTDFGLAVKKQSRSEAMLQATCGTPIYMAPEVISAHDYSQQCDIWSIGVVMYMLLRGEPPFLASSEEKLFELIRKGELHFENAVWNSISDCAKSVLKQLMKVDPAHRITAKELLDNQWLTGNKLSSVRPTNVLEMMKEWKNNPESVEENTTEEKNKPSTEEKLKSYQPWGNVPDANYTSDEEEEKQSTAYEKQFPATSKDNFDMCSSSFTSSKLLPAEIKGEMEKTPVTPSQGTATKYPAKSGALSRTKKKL
TEK (human), sequence (Q02763 whole entry, looked up): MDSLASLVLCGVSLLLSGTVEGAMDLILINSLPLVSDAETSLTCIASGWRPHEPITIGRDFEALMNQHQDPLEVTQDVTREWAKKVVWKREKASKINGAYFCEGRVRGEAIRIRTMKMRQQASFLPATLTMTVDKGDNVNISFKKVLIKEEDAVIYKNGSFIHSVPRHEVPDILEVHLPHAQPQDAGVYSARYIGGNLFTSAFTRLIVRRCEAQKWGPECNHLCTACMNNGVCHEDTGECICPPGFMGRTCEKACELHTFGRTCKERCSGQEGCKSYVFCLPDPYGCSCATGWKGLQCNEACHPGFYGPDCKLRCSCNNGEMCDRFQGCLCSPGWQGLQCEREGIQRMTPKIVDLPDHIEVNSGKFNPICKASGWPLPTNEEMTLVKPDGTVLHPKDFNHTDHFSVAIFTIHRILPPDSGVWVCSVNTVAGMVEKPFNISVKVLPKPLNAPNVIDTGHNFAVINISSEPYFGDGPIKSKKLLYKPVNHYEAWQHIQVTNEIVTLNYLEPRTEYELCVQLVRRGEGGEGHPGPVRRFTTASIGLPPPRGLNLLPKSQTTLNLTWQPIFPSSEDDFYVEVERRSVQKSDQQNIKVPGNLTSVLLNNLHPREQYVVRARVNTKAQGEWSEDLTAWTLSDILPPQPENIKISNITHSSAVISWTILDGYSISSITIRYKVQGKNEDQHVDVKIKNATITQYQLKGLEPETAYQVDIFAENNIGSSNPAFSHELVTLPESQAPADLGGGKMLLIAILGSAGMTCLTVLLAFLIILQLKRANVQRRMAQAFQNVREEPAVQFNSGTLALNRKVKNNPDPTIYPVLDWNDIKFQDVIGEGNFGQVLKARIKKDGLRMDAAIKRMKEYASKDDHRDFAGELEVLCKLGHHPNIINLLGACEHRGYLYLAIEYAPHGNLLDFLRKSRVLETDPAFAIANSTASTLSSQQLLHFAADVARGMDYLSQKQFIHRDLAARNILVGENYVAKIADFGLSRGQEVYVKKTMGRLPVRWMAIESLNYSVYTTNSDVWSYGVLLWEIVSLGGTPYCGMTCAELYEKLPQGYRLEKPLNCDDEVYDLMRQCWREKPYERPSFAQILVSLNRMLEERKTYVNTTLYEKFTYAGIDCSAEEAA
AURKB (human), sequence (Q96GD4 whole entry, looked up): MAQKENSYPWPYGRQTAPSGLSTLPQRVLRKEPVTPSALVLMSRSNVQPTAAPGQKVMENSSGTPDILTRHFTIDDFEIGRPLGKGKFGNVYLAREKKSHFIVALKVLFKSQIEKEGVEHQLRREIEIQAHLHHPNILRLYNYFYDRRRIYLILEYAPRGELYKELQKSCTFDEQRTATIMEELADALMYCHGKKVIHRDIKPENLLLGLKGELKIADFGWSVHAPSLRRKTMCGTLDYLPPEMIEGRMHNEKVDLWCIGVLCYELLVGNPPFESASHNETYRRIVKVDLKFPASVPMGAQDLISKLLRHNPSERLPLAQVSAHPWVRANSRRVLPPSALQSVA
STK16 (human), sequence (O75716 whole entry, looked up): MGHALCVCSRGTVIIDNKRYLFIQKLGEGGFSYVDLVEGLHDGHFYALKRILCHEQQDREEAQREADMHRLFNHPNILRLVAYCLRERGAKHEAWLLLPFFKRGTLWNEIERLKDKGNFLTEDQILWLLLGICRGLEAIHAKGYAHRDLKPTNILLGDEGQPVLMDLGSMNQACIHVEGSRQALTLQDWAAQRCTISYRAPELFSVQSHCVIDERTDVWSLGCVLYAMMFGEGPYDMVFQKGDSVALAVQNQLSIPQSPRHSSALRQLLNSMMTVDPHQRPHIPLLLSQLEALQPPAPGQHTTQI
PTK6 (human), sequence (Q13882 whole entry, looked up): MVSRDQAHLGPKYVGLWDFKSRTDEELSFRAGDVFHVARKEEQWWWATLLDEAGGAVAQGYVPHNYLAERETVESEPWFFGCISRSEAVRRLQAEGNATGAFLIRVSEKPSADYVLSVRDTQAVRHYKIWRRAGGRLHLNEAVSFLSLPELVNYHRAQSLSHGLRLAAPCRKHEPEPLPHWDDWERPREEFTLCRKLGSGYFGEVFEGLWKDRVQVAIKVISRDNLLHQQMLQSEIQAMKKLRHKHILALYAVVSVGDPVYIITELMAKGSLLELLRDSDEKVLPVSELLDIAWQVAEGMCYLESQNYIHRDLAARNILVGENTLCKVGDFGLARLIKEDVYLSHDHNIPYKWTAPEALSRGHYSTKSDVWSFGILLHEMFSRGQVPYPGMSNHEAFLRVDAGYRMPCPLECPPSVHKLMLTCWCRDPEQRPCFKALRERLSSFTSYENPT
ABL1 (human), sequence (P00519 whole entry, looked up): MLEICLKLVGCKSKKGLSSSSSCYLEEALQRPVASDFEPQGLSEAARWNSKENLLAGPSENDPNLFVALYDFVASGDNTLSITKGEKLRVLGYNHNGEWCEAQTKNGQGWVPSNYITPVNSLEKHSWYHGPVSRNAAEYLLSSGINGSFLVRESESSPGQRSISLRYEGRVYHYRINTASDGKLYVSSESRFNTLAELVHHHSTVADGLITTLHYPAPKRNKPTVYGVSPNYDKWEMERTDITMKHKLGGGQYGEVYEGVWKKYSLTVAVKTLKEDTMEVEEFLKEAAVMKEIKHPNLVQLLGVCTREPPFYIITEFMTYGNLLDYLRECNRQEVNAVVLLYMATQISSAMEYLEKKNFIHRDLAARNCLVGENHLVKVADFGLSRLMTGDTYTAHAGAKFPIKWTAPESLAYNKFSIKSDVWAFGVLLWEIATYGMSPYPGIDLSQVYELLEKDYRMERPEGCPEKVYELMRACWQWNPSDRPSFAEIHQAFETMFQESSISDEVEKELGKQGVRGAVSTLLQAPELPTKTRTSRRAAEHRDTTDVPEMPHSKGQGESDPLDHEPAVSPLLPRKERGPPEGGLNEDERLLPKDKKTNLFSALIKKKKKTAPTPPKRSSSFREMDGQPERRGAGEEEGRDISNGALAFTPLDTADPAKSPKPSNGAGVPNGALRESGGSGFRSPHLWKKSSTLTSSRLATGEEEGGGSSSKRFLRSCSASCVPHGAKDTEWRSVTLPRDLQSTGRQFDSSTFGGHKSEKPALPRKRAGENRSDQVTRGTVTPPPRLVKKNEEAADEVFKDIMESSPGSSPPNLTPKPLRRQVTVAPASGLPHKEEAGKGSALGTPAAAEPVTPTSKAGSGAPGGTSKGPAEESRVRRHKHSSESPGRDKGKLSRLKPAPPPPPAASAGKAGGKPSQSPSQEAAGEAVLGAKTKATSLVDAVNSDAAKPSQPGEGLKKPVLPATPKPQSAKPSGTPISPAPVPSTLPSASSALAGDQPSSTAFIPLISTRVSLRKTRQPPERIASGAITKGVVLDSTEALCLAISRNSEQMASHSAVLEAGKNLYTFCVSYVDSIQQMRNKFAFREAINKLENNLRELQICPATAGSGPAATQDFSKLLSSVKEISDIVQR
PHKG1 (human), sequence (Q16816 whole entry, looked up): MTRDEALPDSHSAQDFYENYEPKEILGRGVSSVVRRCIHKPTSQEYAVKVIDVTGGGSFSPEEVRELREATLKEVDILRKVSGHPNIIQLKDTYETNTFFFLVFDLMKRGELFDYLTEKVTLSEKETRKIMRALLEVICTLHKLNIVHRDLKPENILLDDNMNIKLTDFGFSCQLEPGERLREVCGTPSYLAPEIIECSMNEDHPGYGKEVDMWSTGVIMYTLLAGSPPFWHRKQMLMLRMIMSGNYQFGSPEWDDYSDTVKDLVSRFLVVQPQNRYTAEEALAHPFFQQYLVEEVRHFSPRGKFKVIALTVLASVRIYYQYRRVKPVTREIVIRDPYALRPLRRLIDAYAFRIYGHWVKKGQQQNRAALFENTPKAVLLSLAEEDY

O=S(=O)(c1ccc(F)c2nonc12)N1CCN(c2ncc(C(F)(F)F)cc2Cl)CC1
residual activity ([1]; compound 10.0 µM): 111%
residual activity ([2]; compound 10.0 µM): 96%
residual activity ([3]; compound 10.0 µM): 90%
residual activity ([4]; compound 10.0 µM): 98%
residual activity ([5]; compound 10.0 µM): 101%
residual activity ([6]; compound 10.0 µM): 94%
residual activity ([7]; compound 10.0 µM): 97%
residual activity ([8]; compound 10.0 µM): 112%
residual activity ([9]; compound 10.0 µM): 85%

CCCCCc1ccc(/C=C/[C@H](O)[C@@H](CO)NC)cc1
residual activity ([1]; compound 0.1 µM): 110%
residual activity ([1]; compound 1.0 µM): 106%
residual activity ([1]; compound 10.0 µM): 109%
residual activity ([2]; compound 0.1 µM): 100%
residual activity ([2]; compound 1.0 µM): 102%
residual activity ([2]; compound 10.0 µM): 93%
residual activity ([3]; compound 0.1 µM): 99%
residual activity ([3]; compound 1.0 µM): 86%
residual activity ([3]; compound 10.0 µM): 76%
residual activity ([4]; compound 0.1 µM): 101%
residual activity ([4]; compound 1.0 µM): 109%
residual activity ([4]; compound 10.0 µM): 96%
residual activity ([5]; compound 0.1 µM): 104%
residual activity ([5]; compound 1.0 µM): 93%
residual activity ([5]; compound 10.0 µM): 104%
residual activity ([6]; compound 0.1 µM): 104%
residual activity ([6]; compound 1.0 µM): 98%
residual activity ([6]; compound 10.0 µM): 100%
residual activity ([7]; compound 0.1 µM): 100%
residual activity ([7]; compound 1.0 µM): 100%
residual activity ([7]; compound 10.0 µM): 89%
residual activity ([8]; compound 0.1 µM): 141%
residual activity ([8]; compound 1.0 µM): 118%
residual activity ([8]; compound 10.0 µM): 113%
residual activity ([9]; compound 0.1 µM): 116%
residual activity ([9]; compound 1.0 µM): 106%
residual activity ([9]; compound 10.0 µM): 92%

Cn1c(=O)c2c(ncn2C)n(C)c1=O
residual activity ([2]; compound 0.1 µM): 91%
residual activity ([2]; compound 1.0 µM): 83%
residual activity ([3]; compound 0.1 µM): 113%
residual activity ([3]; compound 1.0 µM): 115%

NS(=O)(=O)OC[C@@H]1C[C@@H](n2ccc3c(N[C@H]4CCc5ccccc54)ncnc32)C[C@@H]1O
residual activity ([2]; compound 10.0 µM): 93%
residual activity ([3]; compound 1.0 µM): 109%
residual activity ([3]; compound 10.0 µM): 106%

CCc1cncnc1N1CCN(Cc2nc3cc(C(F)(F)F)ccc3[nH]2)CC1
residual activity ([2]; compound 0.1 µM): 89%
residual activity ([2]; compound 1.0 µM): 87%
residual activity ([2]; compound 10.0 µM): 49%
residual activity ([3]; compound 0.1 µM): 100%
residual activity ([3]; compound 1.0 µM): 96%
residual activity ([3]; compound 10.0 µM): 104%

NC(=O)c1cc2c(-c3cccc(-c4ccccc4)c3)cnc(N)c2s1
residual activity ([2]; compound 0.1 µM): 110%
residual activity ([2]; compound 1.0 µM): 96%
residual activity ([2]; compound 10.0 µM): 43%
residual activity ([3]; compound 0.1 µM): 104%
residual activity ([3]; compound 1.0 µM): 92%
residual activity ([3]; compound 10.0 µM): 55%

FC(F)(F)c1ccc(-c2ccc(Oc3cncc4sc(-c5nn[nH]n5)cc34)cc2)cc1
residual activity ([2]; compound 1.0 µM): 81%
residual activity ([2]; compound 10.0 µM): 40%
residual activity ([3]; compound 1.0 µM): 102%
residual activity ([3]; compound 10.0 µM): 82%

CC(C)C[C@H](NC(=O)CNC(=O)c1cc(Cl)ccc1Cl)B1OC(=O)CC(CC(=O)O)(C(=O)O)O1 (stereo not given in full)
residual activity ([1]; compound 10.0 µM): 101%
residual activity ([2]; compound 10.0 µM): 75%
residual activity ([3]; compound 10.0 µM): 44%
residual activity ([4]; compound 10.0 µM): 114%
residual activity ([5]; compound 10.0 µM): 96%
residual activity ([6]; compound 10.0 µM): 102%
residual activity ([7]; compound 10.0 µM): 98%
residual activity ([8]; compound 10.0 µM): 98%
residual activity ([9]; compound 10.0 µM): 84%

Oc1ccc2ccccc2c1SSc1c(O)ccc2ccccc12
residual activity ([2]; compound 1.0 µM): 2%
residual activity ([2]; compound 5.0 µM): 2%
residual activity ([2]; compound 10.0 µM): 5%
residual activity ([3]; compound 1.0 µM): 100%
residual activity ([3]; compound 5.0 µM): 103%
residual activity ([3]; compound 10.0 µM): 108%

O=C(O)c1cc(N=Nc2ccc(S(=O)(=O)Nc3ccccn3)cc2)ccc1O
residual activity ([2]; compound 1.0 µM): 104%
residual activity ([2]; compound 10.0 µM): 105%
residual activity ([3]; compound 1.0 µM): 104%
residual activity ([3]; compound 10.0 µM): 94%

O=C1Nc2nc(-c3c(O)cccc3OCC3CC3)cc(C3CCCNC3)c2CO1 (stereo not given)
residual activity ([3]; compound 1.0 µM): 70%
residual activity ([3]; compound 10.0 µM): 21%
